Data: patent publication US20200246364A1, “MEDICAL APPLICATION OF COMPOSITION OF FRUCTOSE-1,6-BISPHOSPHATE AND BLOOD CONCENTRATION STABILIZER THEREOF” (ZHEJIANG UNIVERSITY, priority 2017, published 2020)

Experiments:
glioma cells SHG-44 = experiment: Lactic acid released by glioma cells (glycolysis); type: cell-based, human
Description: Human glioma cell strains (U87-MG, KNS-89, SHG-44) were respectively incubated in culture media containing 0.8 mM of trisodium fructose-1,6-bisphosphate salt, and 1.6 mM of trisodium fructose-1,6-bisphosphate salt, and 1.6 mM of 2-deoxyglucose, and the contents of lactic acid as the final glycolytic product released by the cells in the culture media were measured after 12 h, 24 h, 36 h, and 48 h. […] Human glioma cell strain (U87-MG) was incubated in the culture medium containing 0.8 mM of trisodium fructose-1,6-bisphosphate salt for 1 h, 3 h, 6 h, 12 h, 24 h, 36 h, and 48 h, and level changes of key metabolic enzymes in the glycolytic pathway of cells were measured by Western Blot at the respective time points.

U87MG [1] = experiment: 13C-glucose tracing: glycolysis, pentose phosphate, one-carbon and nucleic acid synthesis intermediates (LC-MS/MS); type: cell-based, human; conditions: 1.6 mM, 36 h
Description: Human glioma cell strain (U87MG) was incubated in a medium containing ^13C-labeled glucose (U-^13C-Glc) and treated with 1.6 mM of trisodium fructose-1,6-bisphosphate for 36 h, and then, intermediate products of intracellular glycolysis pathway, pentose phosphate pathway, “one-carbon unit” metabolic pathway, and nucleic acid de novo synthesis pathway were measured using liquid-mass spectrometry (LC-MS/MS).

U87MG [2] = experiment: 13C-glucose tracing: tricarboxylic acid circulation intermediates, derived amino acids, nucleotide synthesis (LC-MS/MS); type: cell-based, human; conditions: 1.6 mM, 36 h
Description: Human glioma cell strain (U87MG) was incubated in a medium containing ^13C-labeled glucose (U-^13C-Glc) and treated with 1.6 mM of trisodium fructose-1,6-bisphosphate for 36 h, and then using liquid-mass spectrometry (LC-MS/MS), intracellular tricarboxylic acid circulation intermediates, tricarboxylic acid circulation intermediates-derived amino acids and nucleotide de novo synthesis pathway intermediates were measured.

U87MG [3] = experiment: Western Blot of metabolic enzymes and epigenetic proteins, 5-hmC immunocytochemistry; type: cell-based, human; conditions: 1.6 mM
Description: Human glioma cell strain (U87MG) was cultured in a medium containing 1.6 mM of trisodium fructose-1,6-bisphosphate for 36 h, and then cytoplasm and mitochondria were separated. Levels of tricarboxylic acid circulation intermediates in cytoplasm and mitochondria were respectively measured by LC-MS/MS.
Human glioma cell strain (U87MG) was respectively cultured in the medium containing 1.6 mM of trisodium fructose-1,6-bisphosphate for 0, 1, 3, 6, 12, 24, 36, and 48 h, and the changes of protein levels of enzymes related to fatty acid and nucleic acid biosynthetic pathway were investigated by Western Blot (WB).
Human glioma cell strain (U87MG) was respectively cultured in the medium containing 1.6 mM of trisodium fructose-1,6-bisphosphate for 24 h and 36 h, and then a level of 5-hydroxymethylcytosine (5-hmC) was measured by an immunocytochemistry method.

C6 = experiment: Reactive oxygen species and mitochondrial membrane potential; type: cell-based, rat; conditions: C6, 0.8 mM
KNS-89 = experiment: Glutathiones and NADPH/NADP+ (LC-MS/MS); type: cell-based, human; conditions: KNS-89, 1.6 mM, 36 h
Description: (§1) Rat glioma cell strain (C6) and human glioma cell strain (KNS-89, SHG-44) were respectively cultured in a medium containing 1.6 mM of trisodium fructose-1,6-bisphosphate for 36 h, and important antioxidants in cells were measured by liquid-mass spectrometry (LC-MS/MS).

SHG-44 = experiment: Glutathiones and NADPH/NADP+ (LC-MS/MS); type: cell-based, human; conditions: SHG-44, 1.6 mM, 36 h
Description: as §1

[4] = test system: fructose-1,6-bisphosphatase 1; experiment: Kidney protein level of fructose-1,6-bisphosphatase 1 after 14 days treatment (Western Blot); type: in vivo; conditions: SD rats, 14 days i.g.; FBP 500 mg/kg, metformin 150 mg/kg, sitagliptin 20 mg/kg; vs control group
Description: 180-200 g SD rats were divided into 4 groups: a saline control group, a trisodium fructose-1,6-bisphosphate hydrate group (500 mg/kg, i.g), a metformin group (150 mg/kg, i.g) or a sitagliptin group (20 mg/kg, i.g), and a trisodium fructose-1,6-bisphosphate and metformin or sitagliptin combination group, 5 rats in each group. All groups were intragastrically treated, metformin or sitagliptin was administrated 0.5 h before fructose-1,6-bisphosphate, and this was repeated in 14 consecutive days. At 3 hours after the last intragastric treatment with fructose-1,6-bisphosphate, rat blood was collected to detect the blood concentration of FBP, kidney tissue was taken and the protein level of fructose-1,6-bisphosphatase 1 was measured by Western Blot.

Huh-7 = experiment: Cell viability, Sulforhodamine B (SRB) staining; type: cell-based, human; conditions: Homo sapiens, Huh-7, 72 h, FBP 0.8 mM
Description: (§2) Human liver cancer cell strains Bel-7402 and huh-7, which had been incubated for 24 hours, were respectively incubated in a medium containing 1.6 mM or 0.8 mM of trisodium fructose-1,6-bisphosphate, a medium containing 0.2 mM of metformin or 25 μM of sitagliptin, and a medium containing 0.8 mM of trisodium fructose-1,6-bisphosphate and 0.2 mM of metformin/25 μM of sitagliptin for 72 h. A control group (Con) was not treated with the agent. Cell viability was determined by Sulforhodamine B (SRB) staining analysis method.

[5] = test system: mouse liver cancer cells H22; experiment: Tumor growth of mouse liver cancer H22 model; type: in vivo, ICR mice; conditions: FBP 500 mg/kg, i.g., 7 days; for Tumor weight: three times per day
Description: The treatment was performed three times per day, in which metformin or sitagliptin was administrated 0.5 h before trisodium fructose-1,6-bisphosphate. This is repeated for 7 days, and situations of the animals during the experiments were observed. The animals were sacrificed 24 hours after the last treatment, the tumor masses were taken out and weighed, and the average tumor weight in each group of animals was used as an efficacy index.

[6] = healthy volunteers, intravenous infusion 250 mg/kg, cited from earlier work
mouse tumor models = conditions: injected intraperitoneally; cited from earlier work
SW620 = experiment: cells; conditions: Homo sapiens, SW-620, 72 h
Description: Human intestinal cancer cell strains SW620 and HCT-8, which had been incubated for 24 hours, were respectively incubated in a medium containing 0.8 mM of trisodium fructose-1,6-bisphosphate, a medium containing 0.2 mM of metformin/100 μM of sitagliptin, and a medium containing 0.8 mM of trisodium fructose-1,6-bisphosphate and 0.2 mM of metformin/100 μM of sitagliptin for 72 h. A control group (Con) was not treated with the agent. Cell viability was determined by Sulforhodamine B (SRB) staining analysis method.

Bel-7402 = experiment: cells; conditions: Homo sapiens, Bel-7402, 72 h, read-out: cell viability inhibited
Description: as §2

## O=C(COP(=O)(O)O)[C@@H](O)[C@H](O)[C@H](O)COP(=O)(O)O [FBP, fructose-1,6-bisphosphate]
Glioma cells SHG-44; SHG-44, 0.8 mM, 12 h
  Relative levels of lactic acid (compared with the control group): 1.06 ± 0.05
Glioma cells SHG-44; SHG-44, 0.8 mM, 24 h
  Relative levels of lactic acid (compared with the control group): 0.87 ± 0.01
Glioma cells SHG-44; SHG-44, 0.8 mM, 36 h
  Relative levels of lactic acid (compared with the control group): 0.83 ± 0.05
Glioma cells SHG-44; SHG-44, 1.6 mM, 12 h
  Relative levels of lactic acid (compared with the control group): 0.89 ± 0.09
Glioma cells SHG-44; SHG-44, 1.6 mM, 24 h
  Relative levels of lactic acid (compared with the control group): 0.75 ± 0.07
Glioma cells SHG-44; SHG-44, 1.6 mM, 36 h
  Relative levels of lactic acid (compared with the control group): 0.58 ± 0.06
U87MG [1]
  glycine (Gly) (M+2) produced by serine, relative to control group 1: 0.63±0.06
  serine (Ser) (M+3) produced by U-13C-Glc, relative to control group 1: 1.57±0.04
U87MG [1]; CON 13.03 ± 0.38
  Proportions of 13C-labeled ribose in free nucleosides and nucleotides, column F6P: 2.79 ± 0.14
U87MG [1]; CON 31.97 ± 1.11
  Proportions of 13C-labeled ribose in free nucleosides and nucleotides, column GAP: 11.31 ± 1.75
U87MG [1]; CON 41.00 ± 4.28
  Proportions of 13C-labeled ribose in free nucleosides and nucleotides, column FBP: 34.99 ± 1.63
U87MG [1]; CON 59.40 ± 1.11
  Proportions of 13C-labeled ribose in free nucleosides and nucleotides, column PEP: 13.71 ± 0.54
U87MG [1]; CON 61.60 ± 1.95
  Proportions of 13C-labeled ribose in free nucleosides and nucleotides, column Lac: 30.70 ± 2.11
U87MG [1]; control group 68.96±5.03%
  proportion of the 13C-labeled 5-phosphate ribose (R5P): 17.32±1.23%
U87MG [1]; U-13C-Glc
  Relative level of F6P (compared with the control group): 2.06 ± 0.04
  Relative level of FBP (compared with the control group): 5.01 ± 0.34
  Relative level of GAP (compared with the control group): 4.27 ± 0.07
  Relative level of Lac (compared with the control group): 1.06 ± 0.02 ^N.S.
  Relative level of PEP (compared with the control group): 8.00 ± 0.32
U87MG [2]
  Relative level of Asp (compared with the control group): 0.16 ± 0.07
  Relative level of Glu (compared with the control group): 0.35 ± 0.04
  Relative level of OAA (compared with the control group): 1.87 ± 0.04
  Relative level of α-KG (compared with the control group): 1.61 ± 0.01
U87MG [2]; CON 12.41 ± 1.19
  Proportion of 13C-labeled purine/pyrimidine ring in A: 7.70 ± 1.50
U87MG [2]; CON 20.58 ± 2.30
  Proportion of 13C-labeled purine/pyrimidine ring in U: 8.33 ± 0.90
U87MG [2]; CON 38.26 ± 1.50
  Proportion of 13C-labeled purine/pyrimidine ring in ATP: 23.77 ± 0.57
U87MG [2]; CON 50.67 ± 0.96
  Proportion of 13C-labeled purine/pyrimidine ring in UTP: 18.19 ± 0.87
U87MG [2]; CON 53.75 ± 1.47
  Proportion of 13C-labeled purine/pyrimidine ring in G: 41.83 ± 4.06
U87MG [3]
  epigenetic related proteins of tumor cells (Ac-Foxo, H3K9ac, H3K9me2): quickly down-regulated
  protein levels of malate shuttle-related enzymes (ME1, MDH1, MDH2, GOT1, GOT2): decreased significantly over time
U87MG [3]; 0-48 h, Western Blot
  protein levels of enzymes related to fatty acid and nucleic acid biosynthesis (CAD, TS, ACL, FASN): decreased significantly over time
U87MG [3]; 24 h and 36 h, immunocytochemistry
  level of 5-hydroxymethylcytosine (5-hmC): significantly increased
C6; 12 h
  Relative level of mitochondrial membrane potential (compared with the control group): 0.8 ± 0.14
  Relative level of reactive oxygen species (compared with the control group): 1.26 ± 0.04
C6; 24 h
  Relative level of mitochondrial membrane potential (compared with the control group): 0.6 ± 0.11
  Relative level of reactive oxygen species (compared with the control group): 1.89 ± 0.03
C6; 48 h
  Relative level of mitochondrial membrane potential (compared with the control group): 0.1 ± 0.09
C6; 72 h
  Relative level of mitochondrial membrane potential (compared with the control group): 0.1 ± 0.07
KNS-89
  Relative content of GSH (compared with the control group): 0.01 ± 0.00
  Relative content of GSSG (compared with the control group): 0.33 ± 0.02
  Relative ratio of NADPH to NADP+ (compared with the control group): 0.44 ± 0.04
SHG-44
  Relative content of GSH (compared with the control group): 0.67 ± 0.01
  Relative content of GSSG (compared with the control group): 0.38 ± 0.01
  Relative ratio of NADPH to NADP+ (compared with the control group): 0.39 ± 0.01
[4]
  protein level of fructose-1,6-bisphosphatase 1 in kidney tissue (Western Blot): significantly up-regulated
Huh-7; STG 25 μM, read-out: cell viability (Con = 100)
  viability at 800 µM: 80.4 ± 3.63%
Huh-7; sitagliptin 25 μM, read-out: cell viability inhibited
  cytotoxicity at 800 µM: 20%
[5]; H22, metformin experiment, Met 150 mg/kg, Con 1.66 ± 0.29
  Tumor weight: 0.91 ± 0.23 g
[5]; H22, sitagliptin experiment, STG 20 mg/kg, Con 1.48 ± 0.34
  Tumor weight: 0.67 ± 0.28 g
[5]; H22, metformin 150 mg/kg, sitagliptin 20 mg/kg
  inhibition of tumor growth (inhibition ratio): 54.39%
[6]; within 5 minutes
  blood concentration: 770 µg/mL
[6]
  half-life: 10 to 15 min
Mouse tumor models
  effective dose for mouse tumor models: 400-450 mg/kg/time
SW620; read-out: cell viability (Con = 100)
  viability at 800 µM: 49.9 ± 3.91%
SW620; read-out: cell viability inhibited
  cytotoxicity at 800 µM: 41%
Bel-7402
  cytotoxicity at 800 µM: 41%
